Measurements from ChEMBL document CHEMBL1154277, “Discovery of N-substituted pyridinones as potent and selective inhibitors of p38 kinase” (Bioorg Med Chem Lett, 2009).

How the values were obtained:
[1] = molecular target: Serine/threonine-protein kinase pim-1 (Homo sapiens) (UniProt P11309); assay: Inhibition of PIM1 at 10 uM
[2] = molecular target: Aurora kinase B (Homo sapiens) (UniProt Q96GD4); assay: Inhibition of Aurora B at 10 uM
[3] = molecular target: Serine/threonine-protein kinase TBK1 (Homo sapiens) (UniProt Q9UHD2); assay: Inhibition of TBK1 at 10 uM
Sequence of Serine/threonine-protein kinase TBK1 (Homo sapiens) (Q9UHD2 whole entry): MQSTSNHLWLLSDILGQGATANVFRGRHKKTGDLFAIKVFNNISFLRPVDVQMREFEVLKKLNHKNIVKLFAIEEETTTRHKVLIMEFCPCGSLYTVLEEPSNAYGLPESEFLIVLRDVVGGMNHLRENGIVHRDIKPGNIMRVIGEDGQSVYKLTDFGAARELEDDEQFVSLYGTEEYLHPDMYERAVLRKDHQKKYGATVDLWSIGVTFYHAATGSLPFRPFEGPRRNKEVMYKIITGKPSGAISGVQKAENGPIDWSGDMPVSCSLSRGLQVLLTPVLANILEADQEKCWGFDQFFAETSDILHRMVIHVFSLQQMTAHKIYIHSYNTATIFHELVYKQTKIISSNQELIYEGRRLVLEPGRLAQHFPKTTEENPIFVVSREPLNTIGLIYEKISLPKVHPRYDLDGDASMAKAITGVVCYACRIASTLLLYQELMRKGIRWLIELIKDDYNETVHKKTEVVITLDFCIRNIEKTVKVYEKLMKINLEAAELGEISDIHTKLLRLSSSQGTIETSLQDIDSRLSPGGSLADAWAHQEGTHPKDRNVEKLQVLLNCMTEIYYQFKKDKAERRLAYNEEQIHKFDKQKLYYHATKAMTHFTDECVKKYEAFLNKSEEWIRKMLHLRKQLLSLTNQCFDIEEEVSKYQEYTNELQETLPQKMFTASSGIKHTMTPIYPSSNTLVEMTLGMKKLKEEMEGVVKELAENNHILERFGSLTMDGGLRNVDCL

[4] = molecular target: Non-receptor tyrosine-protein kinase TYK2 (Homo sapiens) (UniProt P29597); assay: Inhibition of TYK2 at 10 uM
[5] = molecular target: Tyrosine-protein kinase JAK1 (Homo sapiens) (UniProt P23458); assay: Inhibition of JAK1 at 10 uM
[6] = molecular target: Ribosomal protein S6 kinase alpha-2 (Homo sapiens) (UniProt Q15349); assay: Inhibition of RSK3 at 10 uM
[7] = molecular target: Serine/threonine-protein kinase B-raf (Homo sapiens) (UniProt P15056); assay: Inhibition of B-Raf at 10 uM
[8] = molecular target: Death-associated protein kinase 3 (Homo sapiens) (UniProt O43293); assay: Inhibition of ZIPK at 10 uM
[9] = molecular target: Tyrosine-protein kinase Yes (Homo sapiens) (UniProt P07947); assay: Inhibition of YES1 at 10 uM
[10] = molecular target: cGMP-dependent protein kinase 1 (Homo sapiens) (UniProt Q13976); assay: Inhibition of PRKG1 at 10 uM
[11] = molecular target: Protein kinase C eta type (Homo sapiens) (UniProt P24723); assay: Inhibition of PKCeta at 10 uM
Sequence of Protein kinase C eta type (Homo sapiens) (P24723 whole entry): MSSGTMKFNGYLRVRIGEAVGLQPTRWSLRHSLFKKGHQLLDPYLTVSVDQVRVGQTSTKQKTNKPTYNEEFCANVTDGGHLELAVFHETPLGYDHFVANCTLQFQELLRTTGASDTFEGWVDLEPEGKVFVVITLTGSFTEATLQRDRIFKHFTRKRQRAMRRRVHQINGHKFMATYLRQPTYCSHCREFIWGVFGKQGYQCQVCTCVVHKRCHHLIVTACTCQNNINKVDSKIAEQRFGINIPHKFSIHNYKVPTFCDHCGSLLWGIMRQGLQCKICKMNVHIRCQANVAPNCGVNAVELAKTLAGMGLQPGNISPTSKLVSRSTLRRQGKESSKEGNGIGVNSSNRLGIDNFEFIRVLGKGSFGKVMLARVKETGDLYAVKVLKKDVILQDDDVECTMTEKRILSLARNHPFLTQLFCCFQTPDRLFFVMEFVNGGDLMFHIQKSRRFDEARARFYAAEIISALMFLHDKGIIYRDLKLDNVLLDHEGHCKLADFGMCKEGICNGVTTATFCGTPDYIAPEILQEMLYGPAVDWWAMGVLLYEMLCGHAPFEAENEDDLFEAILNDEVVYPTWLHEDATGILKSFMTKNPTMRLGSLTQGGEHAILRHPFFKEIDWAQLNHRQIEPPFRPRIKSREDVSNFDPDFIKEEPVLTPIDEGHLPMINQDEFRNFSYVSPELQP

[12] = molecular target: Eukaryotic elongation factor 2 kinase (Homo sapiens) (UniProt O00418); assay: Inhibition of EEF2K at 10 uM
[13] = molecular target: Mitogen-activated protein kinase kinase kinase 8 (Homo sapiens) (UniProt P41279); assay: Inhibition of COT at 10 uM
[14] = molecular target: Homeodomain-interacting protein kinase 4 (Homo sapiens) (UniProt Q8NE63); assay: Inhibition of HIPK4 at 10 uM
[15] = molecular target: Tyrosine-protein kinase Fgr (Homo sapiens) (UniProt P09769); assay: Inhibition of FGR at 10 uM
[16] = molecular target: Protein kinase C theta type (Homo sapiens) (UniProt Q04759); assay: Inhibition of PKCtheta at 10 uM
[17] = Selectivity ratio of p38alpha over p38beta
[18] = molecular target: Tyrosine-protein kinase Lyn (Homo sapiens) (UniProt P07948); assay: Inhibition of LYN B at 10 uM
Sequence of Tyrosine-protein kinase Lyn (Homo sapiens) (P07948 2-512 limits assumed): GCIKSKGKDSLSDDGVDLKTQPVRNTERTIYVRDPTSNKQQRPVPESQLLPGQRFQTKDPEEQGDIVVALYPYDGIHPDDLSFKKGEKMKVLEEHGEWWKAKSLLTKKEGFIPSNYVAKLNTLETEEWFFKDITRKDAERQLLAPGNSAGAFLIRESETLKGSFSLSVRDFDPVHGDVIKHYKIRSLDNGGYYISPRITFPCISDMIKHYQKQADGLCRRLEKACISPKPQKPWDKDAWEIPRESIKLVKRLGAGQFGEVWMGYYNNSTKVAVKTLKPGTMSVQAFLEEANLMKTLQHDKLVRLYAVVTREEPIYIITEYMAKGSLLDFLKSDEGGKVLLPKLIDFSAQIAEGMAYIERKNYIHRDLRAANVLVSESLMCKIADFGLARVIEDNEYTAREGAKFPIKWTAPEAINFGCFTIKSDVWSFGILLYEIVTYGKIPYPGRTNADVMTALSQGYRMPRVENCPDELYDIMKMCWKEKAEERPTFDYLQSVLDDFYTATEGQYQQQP

[19] = tested on: Platelet-derived growth factor receptor alpha (Homo sapiens), P16234 [D842V]; assay: Inhibition of PDGFRalpha D842V (mutant) at 10 uM
[20] = molecular target: Mitogen-activated protein kinase 12 (Homo sapiens) (UniProt P53778); assay: Inhibition of p38-gamma at 10 uM
Sequence of Mitogen-activated protein kinase 12 (Homo sapiens) (P53778 whole entry): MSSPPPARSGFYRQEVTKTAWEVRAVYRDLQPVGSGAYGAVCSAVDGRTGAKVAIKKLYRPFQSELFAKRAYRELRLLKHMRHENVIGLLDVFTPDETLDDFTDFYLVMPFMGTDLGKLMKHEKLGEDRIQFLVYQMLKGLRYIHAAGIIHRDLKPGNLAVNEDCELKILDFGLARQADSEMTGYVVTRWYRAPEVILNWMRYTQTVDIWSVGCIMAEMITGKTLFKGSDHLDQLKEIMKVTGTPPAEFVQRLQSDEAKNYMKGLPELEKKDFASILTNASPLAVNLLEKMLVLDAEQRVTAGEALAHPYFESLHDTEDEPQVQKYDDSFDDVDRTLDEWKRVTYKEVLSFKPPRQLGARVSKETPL

[21] = molecular target: G protein-coupled receptor kinase 3 (Homo sapiens) (UniProt P35626); assay: Inhibition of GRK3 at 10 uM
Sequence of G protein-coupled receptor kinase 3 (Homo sapiens) (P35626 whole entry): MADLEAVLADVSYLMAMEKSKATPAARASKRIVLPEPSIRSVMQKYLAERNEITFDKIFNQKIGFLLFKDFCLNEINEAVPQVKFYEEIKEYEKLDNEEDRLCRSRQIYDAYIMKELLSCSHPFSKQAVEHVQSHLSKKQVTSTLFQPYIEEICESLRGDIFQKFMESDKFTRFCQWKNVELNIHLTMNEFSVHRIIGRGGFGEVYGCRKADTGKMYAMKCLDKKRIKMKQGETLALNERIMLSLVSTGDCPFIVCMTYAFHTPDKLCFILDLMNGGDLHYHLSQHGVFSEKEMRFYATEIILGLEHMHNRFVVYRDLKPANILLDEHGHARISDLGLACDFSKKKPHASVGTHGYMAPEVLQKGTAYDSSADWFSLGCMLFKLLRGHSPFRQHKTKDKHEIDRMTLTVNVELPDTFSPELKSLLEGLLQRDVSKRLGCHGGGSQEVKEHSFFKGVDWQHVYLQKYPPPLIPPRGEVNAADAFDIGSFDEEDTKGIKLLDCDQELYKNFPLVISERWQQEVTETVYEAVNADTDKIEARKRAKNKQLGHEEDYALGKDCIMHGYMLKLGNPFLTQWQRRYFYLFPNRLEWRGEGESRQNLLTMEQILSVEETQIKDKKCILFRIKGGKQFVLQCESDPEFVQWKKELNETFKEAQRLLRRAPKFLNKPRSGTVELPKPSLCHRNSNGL

[22] = tested on: Mast/stem cell growth factor receptor Kit (Homo sapiens), P10721 [T670I]; assay: Inhibition of KIT T670I (mutant) at 10 uM
[23] = molecular target: Tyrosine-protein kinase Fyn (Homo sapiens) (UniProt P06241); assay: Inhibition of FYN at 10 uM
[24] = molecular target: Protein kinase C gamma type (Homo sapiens) (UniProt P05129); assay: Inhibition of PKCgamma at 10 uM
[25] = molecular target: Rho-associated protein kinase 2 (Homo sapiens) (UniProt O75116); assay: Inhibition of ROCK2 at 10 uM
Sequence of Rho-associated protein kinase 2 (Homo sapiens) (O75116 whole entry, looked up): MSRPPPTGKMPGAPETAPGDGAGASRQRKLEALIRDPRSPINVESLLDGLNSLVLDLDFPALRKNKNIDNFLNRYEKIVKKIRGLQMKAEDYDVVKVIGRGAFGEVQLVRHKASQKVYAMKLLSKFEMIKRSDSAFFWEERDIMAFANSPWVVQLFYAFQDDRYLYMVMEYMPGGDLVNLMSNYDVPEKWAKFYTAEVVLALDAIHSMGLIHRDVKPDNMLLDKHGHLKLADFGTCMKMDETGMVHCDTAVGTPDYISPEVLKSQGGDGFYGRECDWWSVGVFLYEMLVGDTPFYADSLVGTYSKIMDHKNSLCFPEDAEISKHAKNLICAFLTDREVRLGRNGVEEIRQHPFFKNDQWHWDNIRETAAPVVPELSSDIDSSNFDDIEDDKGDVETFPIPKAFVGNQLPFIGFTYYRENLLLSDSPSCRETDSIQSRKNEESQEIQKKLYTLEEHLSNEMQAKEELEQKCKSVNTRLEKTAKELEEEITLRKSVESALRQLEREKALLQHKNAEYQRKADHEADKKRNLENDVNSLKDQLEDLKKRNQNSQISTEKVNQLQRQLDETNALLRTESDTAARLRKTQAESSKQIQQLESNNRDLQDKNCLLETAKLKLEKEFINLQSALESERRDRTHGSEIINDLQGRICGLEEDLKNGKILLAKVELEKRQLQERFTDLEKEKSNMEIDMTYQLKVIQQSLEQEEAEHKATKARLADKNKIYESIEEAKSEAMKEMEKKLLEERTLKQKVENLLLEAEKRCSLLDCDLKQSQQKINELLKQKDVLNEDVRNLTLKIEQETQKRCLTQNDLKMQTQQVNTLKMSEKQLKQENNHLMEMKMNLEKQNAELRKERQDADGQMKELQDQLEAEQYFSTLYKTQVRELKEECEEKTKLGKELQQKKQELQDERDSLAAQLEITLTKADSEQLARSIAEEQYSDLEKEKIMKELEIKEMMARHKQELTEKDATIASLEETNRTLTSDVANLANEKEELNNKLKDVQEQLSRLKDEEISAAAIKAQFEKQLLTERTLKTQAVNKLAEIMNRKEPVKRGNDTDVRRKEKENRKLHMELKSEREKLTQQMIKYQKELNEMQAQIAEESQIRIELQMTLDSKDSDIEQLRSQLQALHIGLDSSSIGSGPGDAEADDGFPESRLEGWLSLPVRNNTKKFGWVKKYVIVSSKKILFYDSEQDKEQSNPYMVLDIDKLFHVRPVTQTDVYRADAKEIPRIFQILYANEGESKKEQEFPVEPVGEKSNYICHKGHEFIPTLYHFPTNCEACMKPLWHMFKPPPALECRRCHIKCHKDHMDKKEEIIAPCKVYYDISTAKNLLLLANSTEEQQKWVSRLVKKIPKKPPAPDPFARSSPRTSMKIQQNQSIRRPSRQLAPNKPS

[26] = Clearance in po dosed Sprague-Dawley rat; type: ADME, organism-based; conditions: in vivo
[27] = molecular target: MAP kinase-activated protein kinase 2 (Homo sapiens) (UniProt P49137); assay: Inhibition of MAPKAPK2 at 10 uM

Sequence of Aurora kinase B (Homo sapiens) (Q96GD4 whole entry): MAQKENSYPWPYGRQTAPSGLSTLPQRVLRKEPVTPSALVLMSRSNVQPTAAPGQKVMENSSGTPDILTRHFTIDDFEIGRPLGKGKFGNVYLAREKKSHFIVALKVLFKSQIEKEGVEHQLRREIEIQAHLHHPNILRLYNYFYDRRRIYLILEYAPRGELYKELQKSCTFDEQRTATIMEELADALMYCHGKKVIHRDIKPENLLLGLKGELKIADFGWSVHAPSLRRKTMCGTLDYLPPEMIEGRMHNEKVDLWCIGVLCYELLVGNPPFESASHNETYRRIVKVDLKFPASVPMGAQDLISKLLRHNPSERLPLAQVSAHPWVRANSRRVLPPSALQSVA
Sequence of Serine/threonine-protein kinase pim-1 (Homo sapiens) (P11309 whole entry, looked up): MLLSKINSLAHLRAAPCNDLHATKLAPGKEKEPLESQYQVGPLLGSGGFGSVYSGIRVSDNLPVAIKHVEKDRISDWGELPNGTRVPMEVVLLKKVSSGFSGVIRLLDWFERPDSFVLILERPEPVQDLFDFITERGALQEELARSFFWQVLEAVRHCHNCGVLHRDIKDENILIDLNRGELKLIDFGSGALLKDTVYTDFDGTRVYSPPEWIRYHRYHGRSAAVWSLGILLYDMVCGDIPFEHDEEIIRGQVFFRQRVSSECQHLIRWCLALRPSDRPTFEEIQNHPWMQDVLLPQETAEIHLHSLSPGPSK

Cc1cc(OCc2ccc(F)cc2F)c(Br)c(=O)n1Cc1ccc(CN(C)C)cc1
inhibition [1]: < 50% | inhibition [2]: < 50% | inhibition [3]: < 50% | inhibition [4]: < 50% | inhibition [5]: < 50% | inhibition [6]: < 50% | inhibition [7]: < 50% | inhibition [8]: < 50% | inhibition [9]: < 50% | inhibition [10]: < 50% | inhibition [11]: < 50% | inhibition [12]: < 50% | inhibition [13]: < 50% | inhibition [14]: < 50% | inhibition [15]: < 50% | inhibition [16]: < 50% | Selectivity ratio [17]: 5 | inhibition [18]: < 50% | inhibition [19]: < 50% | inhibition [20]: < 50% | inhibition [21]: < 50% | inhibition [22]: < 50% | inhibition [23]: < 50% | inhibition [24]: < 50% | inhibition [25]: < 50% | CL/F [26]: 4.2 L/h/kg | inhibition [27]: < 50%
